Source: patent publication US20240358732A1, “Use of Rutin and Rapamycin in the Preparation of Synergistic Chemotherapy Drugs for Tumor Inhibition” (priority 2023, published 2024)

Tests used:
PC3-only tumors = test: Preclinical treatment trial, PC3-only tumor volume; format: in vivo, mice; conditions: single agents; absence of stromal cells
Description: All experimental mouse experiments were performed strictly following the relevant regulations of the experimental animals. Immuno-deficient mice(NOD-SCID mice, ICR) (body weight about 25 g) aged 6-8 weeks were used for animal experiments related to the present patent. Stromal cells PSC27 and epithelial cells PC3 were mixed at a predetermined ratio of 1:4, and each graft contained 1.25×10^6 cells for tissue remodeling. The xenograft tumors were implanted into mice by subcutaneous transplantation, and the animals were euthanized 8 weeks after the end of the transplantation surgery. Tumor volume was calculated according to the following formula: V=(π/6)×((1+w)/2)^3 (V, volume; 1, length; w, width). In a preclinical treatment trial, subcutaneously transplanted mice were fed with a standard experimental diet, after 2 weeks chemotherapy drugs mitoxantrone (MIT, dose: 0.2 mg/kg) and/or Rutin (500 μl, dose: 10 mg/kg), Rapamycin (500 μl, dose: 10 mg/kg) via intraperitoneal administration. The time points are as follows: all three drugs were administered to mice on the first day of the third, fifth and seventh weeks. A total of 3 cycles of administration was carried out throughout the course of treatment, and each cycle lasted for 2 weeks. After the course of treatment, mouse tumors were harvested for volume measurement and histological analysis. […] The chemotherapy experiment ended at the end of the 8th week, and the mice were dissected immediately after sacrifice, and the xenograft tumors were collected and used for pathological system analysis.

[1] = test system: PC3, DU145, M12 and LNCaP; test: Drug resistance of prostate cancer cells cultured with PSC27 conditioned media; format: cell-based, human; conditions: rutin final concentration 100 μM
[2] = test system: PC3, DU145, M12 and LNCaP; test: Proliferation, migration and invasion of prostate cancer cells cultured with PSC27 conditioned media; format: cell-based, human; conditions: rutin final concentration 100 μM
[3] = biological target: ATM and TRAF6 interaction (Homo sapiens, UniProt Q13315+Q9Y4K3); test: p-ATM-mediated IP and immunoblot in PSC27 cells; format: cell-based; conditions: BLEO and/or rutin
ATM and TRAF6 interaction, sequence (Q13315 2-3056 limits assumed): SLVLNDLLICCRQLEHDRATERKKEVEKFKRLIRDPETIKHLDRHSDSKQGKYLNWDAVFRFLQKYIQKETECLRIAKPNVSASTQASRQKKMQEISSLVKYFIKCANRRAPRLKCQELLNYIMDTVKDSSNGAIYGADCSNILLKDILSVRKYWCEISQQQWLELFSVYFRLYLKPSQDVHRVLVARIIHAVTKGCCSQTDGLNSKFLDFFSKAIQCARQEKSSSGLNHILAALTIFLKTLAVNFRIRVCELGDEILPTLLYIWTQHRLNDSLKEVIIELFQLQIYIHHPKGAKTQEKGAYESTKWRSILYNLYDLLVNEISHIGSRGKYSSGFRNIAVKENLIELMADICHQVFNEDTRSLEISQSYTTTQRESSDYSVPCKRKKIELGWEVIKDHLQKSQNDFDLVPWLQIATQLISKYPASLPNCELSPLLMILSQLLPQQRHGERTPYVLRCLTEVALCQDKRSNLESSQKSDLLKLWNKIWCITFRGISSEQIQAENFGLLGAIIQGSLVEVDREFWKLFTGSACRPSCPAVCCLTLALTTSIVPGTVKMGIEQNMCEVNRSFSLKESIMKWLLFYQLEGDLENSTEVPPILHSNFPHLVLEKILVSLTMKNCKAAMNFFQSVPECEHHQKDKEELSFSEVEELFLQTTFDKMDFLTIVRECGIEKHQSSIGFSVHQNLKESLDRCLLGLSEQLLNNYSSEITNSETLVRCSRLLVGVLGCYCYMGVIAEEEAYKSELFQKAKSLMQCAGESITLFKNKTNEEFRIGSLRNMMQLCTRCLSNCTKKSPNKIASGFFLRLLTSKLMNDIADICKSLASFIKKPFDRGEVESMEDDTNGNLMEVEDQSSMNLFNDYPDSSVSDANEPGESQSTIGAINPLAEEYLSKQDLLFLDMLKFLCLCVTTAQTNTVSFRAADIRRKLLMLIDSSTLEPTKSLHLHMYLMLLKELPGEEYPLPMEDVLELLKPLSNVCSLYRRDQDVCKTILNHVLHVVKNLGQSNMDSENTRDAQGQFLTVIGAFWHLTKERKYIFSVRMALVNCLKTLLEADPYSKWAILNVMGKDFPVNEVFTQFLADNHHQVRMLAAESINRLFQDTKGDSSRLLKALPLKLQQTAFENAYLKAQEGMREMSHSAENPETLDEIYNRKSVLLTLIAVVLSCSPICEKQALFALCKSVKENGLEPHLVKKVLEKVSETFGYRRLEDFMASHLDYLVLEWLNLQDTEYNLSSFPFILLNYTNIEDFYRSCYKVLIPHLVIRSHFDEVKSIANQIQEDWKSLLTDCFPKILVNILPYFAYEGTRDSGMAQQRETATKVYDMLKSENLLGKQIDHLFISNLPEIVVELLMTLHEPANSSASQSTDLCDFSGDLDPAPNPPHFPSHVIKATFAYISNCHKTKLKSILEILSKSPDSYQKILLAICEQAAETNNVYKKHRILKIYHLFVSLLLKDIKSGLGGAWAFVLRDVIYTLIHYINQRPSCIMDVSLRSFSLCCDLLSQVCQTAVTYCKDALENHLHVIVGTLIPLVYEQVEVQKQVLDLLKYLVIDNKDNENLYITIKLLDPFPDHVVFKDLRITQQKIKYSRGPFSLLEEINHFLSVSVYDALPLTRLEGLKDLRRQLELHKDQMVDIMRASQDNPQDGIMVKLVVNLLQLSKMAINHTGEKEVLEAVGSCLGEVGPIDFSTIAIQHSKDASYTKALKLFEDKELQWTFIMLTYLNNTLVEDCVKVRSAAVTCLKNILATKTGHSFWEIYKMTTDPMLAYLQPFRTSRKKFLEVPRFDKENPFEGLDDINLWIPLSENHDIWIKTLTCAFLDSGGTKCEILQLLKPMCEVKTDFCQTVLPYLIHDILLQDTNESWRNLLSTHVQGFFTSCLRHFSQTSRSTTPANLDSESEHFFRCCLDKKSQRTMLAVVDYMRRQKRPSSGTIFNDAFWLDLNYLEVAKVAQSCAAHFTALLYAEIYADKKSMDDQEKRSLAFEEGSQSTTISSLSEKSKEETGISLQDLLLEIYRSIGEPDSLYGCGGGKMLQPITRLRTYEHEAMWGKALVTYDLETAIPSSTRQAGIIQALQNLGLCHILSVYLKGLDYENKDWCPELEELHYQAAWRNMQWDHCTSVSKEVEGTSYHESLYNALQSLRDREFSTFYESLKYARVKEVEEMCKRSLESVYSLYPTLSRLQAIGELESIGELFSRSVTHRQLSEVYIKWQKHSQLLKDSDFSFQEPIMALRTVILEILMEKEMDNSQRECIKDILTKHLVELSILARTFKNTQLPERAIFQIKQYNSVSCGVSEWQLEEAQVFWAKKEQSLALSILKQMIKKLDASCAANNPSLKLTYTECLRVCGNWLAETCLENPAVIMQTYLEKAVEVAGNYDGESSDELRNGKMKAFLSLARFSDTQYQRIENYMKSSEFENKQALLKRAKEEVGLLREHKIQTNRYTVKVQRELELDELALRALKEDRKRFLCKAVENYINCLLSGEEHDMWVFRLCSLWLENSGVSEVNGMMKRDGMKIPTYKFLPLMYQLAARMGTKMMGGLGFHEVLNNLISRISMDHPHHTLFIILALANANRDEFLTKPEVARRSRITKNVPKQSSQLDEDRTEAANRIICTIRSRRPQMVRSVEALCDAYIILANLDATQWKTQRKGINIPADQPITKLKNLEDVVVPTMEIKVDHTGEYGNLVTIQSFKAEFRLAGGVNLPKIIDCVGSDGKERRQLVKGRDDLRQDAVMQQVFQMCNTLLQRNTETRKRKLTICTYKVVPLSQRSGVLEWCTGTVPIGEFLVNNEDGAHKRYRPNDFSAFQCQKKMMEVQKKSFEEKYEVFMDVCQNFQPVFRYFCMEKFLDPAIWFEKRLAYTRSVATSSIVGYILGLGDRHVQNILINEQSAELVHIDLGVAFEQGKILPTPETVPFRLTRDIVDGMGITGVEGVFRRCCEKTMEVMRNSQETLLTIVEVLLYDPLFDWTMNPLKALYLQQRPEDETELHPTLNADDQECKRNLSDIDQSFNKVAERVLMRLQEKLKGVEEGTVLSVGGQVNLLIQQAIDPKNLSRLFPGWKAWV
ATM and TRAF6 interaction, sequence (Q9Y4K3 whole entry): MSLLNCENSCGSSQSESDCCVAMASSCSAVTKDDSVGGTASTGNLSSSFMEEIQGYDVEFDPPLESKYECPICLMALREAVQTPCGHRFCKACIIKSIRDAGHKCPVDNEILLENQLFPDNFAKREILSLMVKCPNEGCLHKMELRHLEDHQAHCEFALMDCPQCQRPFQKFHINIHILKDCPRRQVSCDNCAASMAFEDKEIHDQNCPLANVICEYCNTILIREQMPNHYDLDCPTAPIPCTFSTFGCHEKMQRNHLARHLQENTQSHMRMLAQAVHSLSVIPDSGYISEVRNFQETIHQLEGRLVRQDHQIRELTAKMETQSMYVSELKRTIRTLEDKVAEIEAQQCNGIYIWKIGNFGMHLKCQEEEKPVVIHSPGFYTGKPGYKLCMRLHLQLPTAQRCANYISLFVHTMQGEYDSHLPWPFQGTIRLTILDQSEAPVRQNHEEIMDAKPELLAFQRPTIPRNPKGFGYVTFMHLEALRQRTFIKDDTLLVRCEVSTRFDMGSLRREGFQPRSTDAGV

PSC27 cells [4] = test: ROS production in PSC27 cells with DCFH-DA; format: cell-based, human
Excerpt: FIG. 23. Measurement of Reactive Oxygen Species (ROS) production in PSC27 cells under various conditions with DCFH-DA, a fluorescent reagent. Left, representative images, scale bar, […]; Right, comparative statistics.

IL8 (interleukin 8) = test: NMA library screen: expression of SASP factor IL8 in PSC27 cells; format: cell-based, human; conditions: senescent PSC27 cells
PSC27 cells [5] = test: RNA-seq / GSEA of PSC27 cells; format: cell-based, human
Description: Whole-transcriptome sequencing was performed on the primary human prostate stromal cell line PSC27 under different treatment conditions. Total RNA samples were obtained from stromal cells. Their integrity was verified by Bioanalyzer 2100 (Agilent), RNA was sequenced by Illumina HiSeq X10, and gene expression levels were quantified by software package […]/). Briefly, rRNA was depleted from RNA samples with the RiboMinus Eukaryote Kit (Qiagen, Valencia, CA, USA); and according to the manufacturer's instructions, TruSeq Stranded Total RNA Preparation Kits (Illumina, San Diego, CA, USA) was used to construct a strand-specific RNA-seq library before deep sequencing. Paired-end transcriptomic reads were mapped to a reference genome (GRCh38/hg38), and reference-annotation was performed from Gencode v27 using the Bowtie tool. Duplicate reads were identified using the picard Tools (1.98) script to mark duplicates (https://github.com/broadinstitute/picard), and only non-duplicate reads were retained. Reference splice junctions were provided by reference transcriptome (Ensembl Build 73). FPKM values were calculated with Cufflinks, and Cufflinks maximum likelihood estimation function was used to call differential gene expression. […] Next, Trim Galore (v0.3.0) (http://www.bioinformatics.babraham.ac.uk/projects/trim_galore/) was used to trim the reads, while the quality assessment was carried out by using FastQC (v0.10.0) (http://www.bioinformatics.bbsrc.ac.uk/projects/fastqc/). Subsequently, DAVID bioinformatics platform ( ) and ingenuity Pathways Analysis (IPA) program (http://www.ingenuity.com/index.html) were used. A preliminary analysis of the raw data was performed on a free online platform, Majorbio I-Sanger Cloud Platform (www.i-sanger.com) and the raw data were deposited in the NCBI Gene Expression Omnibus (GEO) database with access code GSE156448. Based on the data obtained from the preliminary analysis of RNA-seq, after analyzing and comparing each differentially expressed significant gene, the genes were sorted using the “wald statistics” obtained from DESeq2. GSEA was performed on the sorting lists of all planning gene sets available in MSigDB (http://software.broadinstitute.org/gsea/msigdb). DESeq2 independent filtering was based on the average of normalized read counts to select genes with very low expression levels. The SASP and GSEA signature were as described in our previous publication (Zhang et al., 2018a).

PC3/PSC27 tumors [6] = test: Xenografts of PC3 with PSC27 sublines (naive, senescent, pretreated); format: in vivo; conditions: PC3 + PSC27^SEN recombinants, SCID mice, 8 weeks, p<0.0001
SASP factors = test: qRT-PCR of typical SASP factors in BLEO-induced senescent PSC27 cells; format: cell-based, human; conditions: IL6, IL8, IL1a, IL1β, CXCL3, MMP3, GM-CSF, 20-100 μM tested
PSC27 cells [7] = test: BrdU incorporation of PSC27 cells; format: cell-based, human; conditions: BLEO 50 μg/ml induces senescence, rutin tested on proliferating and BLEO-induced senescent cells
[8] = biological target: ATM and HIF1α interaction (Homo sapiens, UniProt Q13315+Q16665); test: p-ATM-mediated IP and immunoblot in PSC27 cells; format: cell-based; conditions: BLEO and/or rutin
ATM and HIF1α interaction, sequence (Q13315 2-3056 limits assumed): as the sequence (Q13315 2-3056 limits assumed) above
ATM and HIF1α interaction, sequence (Q16665 whole entry): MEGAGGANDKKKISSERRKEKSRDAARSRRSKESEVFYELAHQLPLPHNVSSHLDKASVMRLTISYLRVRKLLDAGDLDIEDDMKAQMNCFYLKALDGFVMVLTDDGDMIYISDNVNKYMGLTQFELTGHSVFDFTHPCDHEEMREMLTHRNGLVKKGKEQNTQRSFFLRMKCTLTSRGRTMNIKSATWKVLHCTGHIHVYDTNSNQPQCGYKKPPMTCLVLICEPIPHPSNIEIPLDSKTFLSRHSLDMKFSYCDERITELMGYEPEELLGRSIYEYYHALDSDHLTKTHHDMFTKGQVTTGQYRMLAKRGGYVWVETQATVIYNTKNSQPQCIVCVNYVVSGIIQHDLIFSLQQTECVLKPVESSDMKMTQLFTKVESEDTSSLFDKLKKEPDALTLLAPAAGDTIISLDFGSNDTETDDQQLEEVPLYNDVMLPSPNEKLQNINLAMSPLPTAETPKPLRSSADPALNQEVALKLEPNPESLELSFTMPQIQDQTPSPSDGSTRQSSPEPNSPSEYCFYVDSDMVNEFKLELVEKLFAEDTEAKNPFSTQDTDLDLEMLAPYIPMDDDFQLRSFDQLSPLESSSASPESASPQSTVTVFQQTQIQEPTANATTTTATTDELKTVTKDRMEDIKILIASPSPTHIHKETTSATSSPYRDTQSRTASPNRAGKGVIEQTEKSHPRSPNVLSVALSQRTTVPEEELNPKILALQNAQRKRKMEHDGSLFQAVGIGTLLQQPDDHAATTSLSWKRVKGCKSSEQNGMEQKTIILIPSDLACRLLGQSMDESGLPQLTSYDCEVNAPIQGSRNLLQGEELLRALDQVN

[9] = test system: ATM, TAK1, p38MAPK, PI3K/Akt/mTOR, IL8; test: Immunoblot of DDR pathways and SASP expression in PSC27 cells; format: cell-based, human; conditions: for ATM activation / phosphorylation: BLEO-induced senescence, with or without rutin
PC3 cells = test: Dose-response curves of PC3 cells with PSC27-BLEO CM exposed to MIT; format: cell-based, human; conditions: PC3 exposed to MIT at 0.1-1.0 μM; rutin 100 μM
PC3/PSC27 tumors [10] = test: SA-β-Gal staining of PC3/PSC27 tumor tissue; format: in vivo, mice; conditions: PC3/PSC27 tumor lesions
Description: Comparison of cell senescence in PC3/PSC27 tumor-bearing animal lesions in preclinical experiments. Representative pictures after SA-β-Gal staining. […] Senescence-associated β-galactosidase (SA-β-Gal) staining was performed following a previously reported procedure (Debacq-Chainiaux et al., 2009). Briefly, cells in culture dishes were washed with PBS and fixed at room temperature. Cells were fixed in 2% formaldehyde and 0.2% glutaraldehyde for 3 minutes. SA-β-Gal was used for staining with freshly prepared staining solution overnight at 37° C. Images were taken on the next day and the percentage of positive cells per unit area was calculated.

p65 and p50 (NF-κB) = test: Immunoblot after separation of the nucleoplasm, PSC27 cells; format: cell-based, human
Description: Immunoblot analysis of cell lysates of PSC27 cells upon BELO and/or rutin intervention after separation of the nucleoplasm. C, cytoplasmic; N; Nuclear. Lamin A/C, loading control for nuclear proteins. GAPDH, loading control for cytoplasmic proteins. Cell lysate-derived proteins were separated using NuPAGE 4-12% Bis-Tris gel and transferred to nitrocellulose membranes (Life Technologies). The blot was blocked with 5% skimmed milk for 1 h at room temperature, incubated overnight at 4° C. with the desired primary antibody at the manufacturer's protocol concentration, and then incubated with horseradish peroxidase-conjugated secondary antibody (Santa Cruz) for 1 h. Blot signal detection was carried out with enhanced chemiluminescence (ECL) detection reagent (Millipore) according to the manufacturer's protocol, and ImageQuant LAS 400 Phospho-Imager (GE Healthcare) was used. As a standard protein marker, PageRuler Plus Prestained Protein Ladder (no. 26619) from Thermo Fisher Scientific was used by the inventors.

PSC27 cells [11] = test: SA-β-Gal staining of PSC27 cells; format: cell-based, human; conditions: BLEO 50 μg/ml induces senescence, rutin tested on proliferating and BLEO-induced senescent cells
TRAF6-TAK1 interaction = test: p-TAK1-mediated IP and immunoblot in PSC27 cells; format: cell-based, human; conditions: BLEO and/or rutin
[12] = test system: MDA-MB-231/HBF1203 tumors; test: Breast cancer xenograft treatment trial; format: in vivo, mice; conditions: end of 8th week
PC3/PSC27 tumors [13] = test: Preclinical treatment trial, PC3/PSC27 xenograft tumor volume; format: in vivo, mice
PC3/PSC27 xenografts = test: DNA damage and apoptosis of cancer cells in PC3/PSC27 xenografts; format: in vivo, mice; conditions: tumors dissected 7 days after initiation of treatment
[14] = test system: SASP factors, p16^INK4a, p21^CIP1; test: qRT-PCR of SASP factors and senescence markers in tumor-bearing sites; format: in vivo, mice
Description: Varying expression levels of transcripts between the groups of a set of typical SASP molecules in tumor-bearing sites of mice according to the detection and analysis of fluorescent quantitative PCR (qRT-PCR). Data in each group is normalized for the sample with the lowest expression value within the group. IL6, IL8, AREG and ILla are included. […] Varying expression levels of transcripts between the groups of another set of typical SASP molecules in tumor-bearing sites of mice according to the detection and analysis of fluorescent quantitative PCR (qRT-PCR). Data in each group is normalized for the sample with the lowest expression value within the group. MMP1, MMP3, ANGPTL4 and SPINK1 are included. […] Varying expression levels of transcripts between the groups of a set of cellular senescence-specific biomarkers in tumor-bearing sites of mice according to the detection and analysis of fluorescent quantitative PCR (qRT-PCR). […] After the reaction was completed, the amplification of each gene was checked by software analysis, the corresponding threshold cycle number was derived, and the relative expression of each gene was calculated using the 2-ΔΔCt method. The peak and waveform of the melting curve was analyzed to determine whether the obtained amplification product was a specific single target fragment.

AREG = test: ELISA of circulating serum SASP proteins; format: in vivo, mice; conditions: mouse serum
Description: (§1) FIG. 41. Circulating serum proteins of SASP typical factors in mice were examined using ELISA. Left, AREG. Right, EREG. […] The time points are as follows: all three drugs were administered to mice on the first day of the third, fifth and seventh weeks. A total of 3 cycles of administration was carried out throughout the course of treatment, and each cycle lasted for 2 weeks. After the course of treatment, mouse tumors were harvested for volume measurement and histological analysis. […] The chemotherapy experiment ended at the end of the 8th week, and the mice were dissected immediately after sacrifice, and the xenograft tumors were collected and used for pathological system analysis. […] For alternative chemotherapeutics, vincristine or vinblastine (dose: 1.0 mg/kg) is administered intraperitoneally.

EREG = test: ELISA of circulating serum SASP proteins; format: in vivo, mice; conditions: mouse serum
Description: as §1

[15] = FIG. 14, senescence induction and rutin intervention, P<0.01, Fold change>4
[16] = senescent PSC27 upon rutin, 2-fold change of log 2-based, p<0.01

Question: `CO[C@H]1C[C@@H]2CC[C@@H](C)[C@@](O)(O2)C(=O)C(=O)N2CCCC[C@H]2C(=O)O[C@H]([C@H](C)C[C@@H]2CC[C@@H](O)[C@H](OC)C2)CC(=O)[C@H](C)/C=C(\C)[C@@H](O)[C@@H](OC)C(=O)[C@H](C)C[C@H](C)/C=C/C=C/C=C/1C` [rapamycin] was tested. Which “effect on PC3-only tumors” value (PC3-only tumors) did it give?
Answer: did not show a remarkable effect

Question: What does the source list for `C[C@@H]1O[C@@H](OC[C@H]2O[C@@H](Oc3c(-c4ccc(O)c(O)c4)oc4cc(O)cc(O)c4c3=O)[C@H](O)[C@@H](O)[C@@H]2O)[C@H](O)[C@H](O)[C@H]1O` [rutin]?
Answer: counteraction of the increase in cancer cell viability upon senescent stromal cell-derived CM [1]: about 80%; gain-of-functions (proliferation, migration, invasion; malignancy) conferred by CM from senescent PSC27 cells [2]: almost completely disappeared; interaction of ATM and TRAF6 [3]: significantly weakens; ROS generation by senescent cells (PSC27 cells [4]; PSC27, BLEO-induced senescent): significantly suppressed; production of ROS in proliferating cells (PSC27 cells [4]; PSC27, proliferating): did not change; expression of interleukin 8 (IL8), a hallmark SASP factor (senomorphic potential) (IL8 (interleukin 8)): prominent efficacy in downregulating; genes down-regulated (PSC27 cells [5]; [15]): 3733 genes; genes up-regulated (PSC27 cells [5]; [15]): 886 genes; transcriptome-wide expression of SASP factors (PSC27 cells [5]; RNA-seq, senescent PSC27 cells treated with rutin): most of the SASP factors were indeed downregulated; GSEA SASP signature (PSC27 cells [5]; senescent PSC27 cells treated with rutin): specifically and significantly inhibited SASP; transcripts downregulated (PSC27 cells [5]; [16]): 3733 transcripts; transcripts significantly modified (PSC27 cells [5]; [16]): 4619 transcripts; transcripts upregulated (PSC27 cells [5]; [16]): 886 transcripts; tumor volumes after pretreatment of PSC27^SEN cells in vitro (PC3/PSC27 tumors [6]): considerably reduced tumor volumes; effect on PC3-only tumors (PC3-only tumors): did not show a remarkable effect; concentration with the most optimal effects in restraining expression of typical SASP components (SASP factors): 100 µM; BrdU incorporation (PSC27 cells [7]): remained largely unchanged; mutual interaction between ATM and HIF1α [8]: subject to interruption; ATM activation / phosphorylation [9]: remained largely unaffected; TAK1 phosphorylation, p38MAPK activation, PI3K/Akt/mTOR activation and IL8 upregulation after BLEO ([9]; in the presence of rutin): generally diminished; cancer resistance conferred by the CM of senescent stromal cells (PC3 cells): remarkably downregulate cancer resistance; tissue senescence by SA-β-GAL staining (PC3/PSC27 tumors [10]): neither promote nor suppress senescence; cytoplasm-to-nucleus translocation of p65 and p50 upon cellular senescence (p65 and p50 (NF-κB)): largely abolished; SA-β-Gal staining (PSC27 cells [11]): remained largely unchanged; TAK1 activation and TRAF6-TAK1 interaction (TRAF6-TAK1 interaction): considerably restrained

Question: With bleomycin [reference compound] as the compound, how does the “ROS levels in contrast to normal counterparts” value (PSC27 cells [4]; PSC27 cells after BLEO genotoxicity) read?
Answer: remarkably elevated ROS levels

Question: What about the BrdU incorporation (PSC27 cells [7]) of the same compound?
Answer: reduced BrdU incorporation

Question: What about the “ATM activation / phosphorylation” value [9] of the same compound?
Answer: markedly activated

Question: What about the SA-β-Gal staining (PSC27 cells [11]) of the same compound?
Answer: elevated positivity

Question: `COc1cccc2c1C(=O)c1c(O)c3c(c(O)c1C2=O)C[C@@](O)(C(=O)CO)C[C@@H]3O[C@H]1C[C@H](N)[C@H](O)[C@H](C)O1` [doxorubicin] was tested. Which “outcome of combination of the chemotherapeutic drug with rutin and rapamycin” value [12] did it give?
Answer: largely reproduced the results of preclinical experiments performed with PCa system

Question: Which “outcome of combination of the chemotherapeutic drug with rutin and rapamycin” value [12] does the source give for `CC[C@]1(O)C[C@H]2CN(CCc3c([nH]c4ccccc34)[C@@](C(=O)OC)(c3cc4c(cc3OC)N(C=O)[C@H]3[C@@](O)(C(=O)OC)[C@H](OC(C)=O)[C@]5(CC)C=CCN6CC[C@]43[C@@H]65)C2)C1` [VIN, vincristine] here?
Answer: did not exhibit the characteristics of effective drug combination therapy

Question: How did the “benefit of the chemotherapeutic drug from combined use of rutin and/or rapamycin” value (PC3/PSC27 tumors [13]; PC3 and PC3/PSC27 tumors) turn out when `CC[C@]1(O)C[C@H]2CN(CCc3c([nH]c4ccccc34)[C@@](C(=O)OC)(c3cc4c(cc3OC)N(C=O)[C@H]3[C@@](O)(C(=O)OC)[C@H](OC(C)=O)[C@]5(CC)C=CCN6CC[C@]43[C@@H]65)C2)C1` [vincristine] was run?
Answer: did not show such benefits

Question: With `O=C1c2c(O)ccc(O)c2C(=O)c2c(NCCNCCO)ccc(NCCNCCO)c21` [MIT, mitoxantrone] as the compound, how does the “DNA damage (DDR) in cancer cells” value (PC3/PSC27 xenografts) read?
Answer: substantial

Question: And the “apoptosis / cell death in cancer cells” value (PC3/PSC27 xenografts)?
Answer: substantial

Question: And the “expression of typical SASP factors in tumors” value ([14]; IL6, IL8, AREG, IL1a, MMP1, MMP3, ANGPTL4, SPINK1)?
Answer: significant upregulation

Question: What about the “typical senescence markers in tumors” value ([14]; p16^INK4a, p21^CIP1 and SA-β-GAL) of the same compound?
Answer: induction

Question: What about the “effect on PC3-only tumors” value (PC3-only tumors) of the same compound?
Answer: caused shrinkage

Question: What about the “tumor sizes in contrast to placebo” value (PC3/PSC27 tumors [13]; 8-week regimen, MIT on 1st day of 3rd, 5th, 7th week) of the same compound?
Answer: remarkably reduced tumor sizes

Question: And the tumor volume decrease (PC3/PSC27 tumors [13]; PC3/PSC27 tumors, MIT alone, end of 8th week)?
Answer: 35.5%

Question: What about the “circulating AREG level” value (AREG) of the same compound?
Answer: elevated levels

Question: What about the “tissue senescence by SA-β-GAL staining” value (PC3/PSC27 tumors [10]) of the same compound?
Answer: considerable tissue senescence

Question: And the “circulating EREG level” value (EREG)?
Answer: elevated levels
